# Patent US20250057913A1, “USE OF SOMATOSTATIN AGONIST IN THE TREATMENT OF SSTR3 EXPRESSING TUMORS” (ITALFARMACO SPA, priority 2021, published 2025)
# Legend:
# SSTR3 [1] = target: T1, SSTR3 (Homo sapiens, UniProt P32745); experiment: SSTR3 phosphorylation in HEK293 transfected cells (phosphosite-specific antibodies); assay type: cell-based; parameters: expressed in transfected cells; conditions: 10^−12 to 10^−5 M, 10 min at 37° C.
# Method: The levels of phosphorylated SST3 receptor were then determined using the phosphosite-specific anti-pS337/pT341 or anti-pT348.
# Finally, the SSTR5 pT333 phosphosite was only partially affected by all tested compounds, with Pasireotide showing the most pronounced effect (FIG. 9B, C).
# [2] = tested on: pentobarbital-induced GH release; experiment: pentobarbital-induced GH release in rats; assay type: in vivo, rat
# SSTR3 [3] = target: T1, SSTR3; experiment: SSTR3 internalization in transfected HEK293 cells (confocal microscopy); assay type: cell-based; parameters: expressed in transfected cells; conditions: HEK293, 1 μM or 10 μM, 30 min
# Excerpt: Cells were then fixed, stained with the anti-HA antibody and examined by confocal microscopy. Shown are representative images from one of at least three independent experiments performed in duplicate.
# HEK293 cells transfected with human SSTRs, and U20S cells transfected with human GFP-tagged receptors (SSTR2-tGFP, SSTR3-tGFP, SSTR5-tGFP). SST14 and SST28 were included as reference compounds in the first and second experiments, respectively.
# SSTR3-tGFP = SSTR3-tGFP (Homo sapiens, UniProt P32745); experiment: Internalization of SSTR3 in U2OS transfected cells; assay type: cell-based; parameters: expressed in transfected cells; host or cells: U2OS
# Excerpt: HEK293 cells transfected with human SSTRs, and U20S cells transfected with human GFP-tagged receptors (SSTR2-tGFP, SSTR3-tGFP, SSTR5-tGFP).
# NT-3 cell line spheroids = experiment: Cytotoxic activity on NT-3 cell line spheroids; assay type: cell-based, human
# Method: NT-3 well-differentiated pancreatic neuroendocrine (PanNET) cell line (32) is an in-vitro model for pancreatic tumours.
# Said cells were cultured in RPMI 1640 Medium GlutaMAX™ with 10% FBS, 1% Penicillin/Streptomycin, 20ng/ml EGF (AF-100-15, Peprotech), 10 ng/ml FGF (100-18B, Peprotech).
# 3D spheroids were generated by seeding 2000 cells/well in a 96-well ULA plate (Corning). Four replicates for each condition were seeded.
# The spheroid formation required 4 days before starting the treatment.
# The treatment was repeated every 3 days by replacing 50% of the medium (to avoid spheroid removal) with new medium containing 2× desired drug concentration.
# Spheroid morphology was monitored every day during the treatment and pictures were taken on day 0, 4, 7, 11, 14, 18. Day 0 corresponds to the first day of treatment. Pictures were taken from the same well every time point.
# SSTR3-tGFP, sequence (P32745 whole entry): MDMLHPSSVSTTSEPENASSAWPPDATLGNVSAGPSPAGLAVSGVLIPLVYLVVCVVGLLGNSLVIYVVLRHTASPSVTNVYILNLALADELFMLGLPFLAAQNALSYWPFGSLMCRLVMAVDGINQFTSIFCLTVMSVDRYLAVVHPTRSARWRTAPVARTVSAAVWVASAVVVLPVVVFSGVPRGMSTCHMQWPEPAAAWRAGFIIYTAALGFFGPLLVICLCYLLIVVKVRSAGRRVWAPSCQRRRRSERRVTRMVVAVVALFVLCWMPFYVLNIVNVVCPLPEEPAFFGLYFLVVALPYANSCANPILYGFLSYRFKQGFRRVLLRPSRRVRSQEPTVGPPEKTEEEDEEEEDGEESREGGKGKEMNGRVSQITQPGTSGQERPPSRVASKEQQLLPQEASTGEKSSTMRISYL
# T1 sequence (P32745 whole entry): as above
structure (smiles),measurement,setting,value
"COc1cc2cccc(OC)c2cc1C[C@H]1NC(=O)[C@H](Cc2ccc(O)cc2)NC(=O)[C@@H]2C[C@@H](OC(=O)NCCN)CN2C(=O)[C@H](Cc2ccccc2)NC(=O)[C@H](Cc2ccc(OCc3ccccc3)cc2)NC(=O)[C@H](CCCCN)NC1=O [ITF2984, (3S,6R,9S,12S,15S,19R,20aS)-9-(4-aminobutyl)-15-benzyl-12-(4-(benzyloxy)benzyl)-6-((3,8-dimethoxynaphthalen-2-yl)methyl)-3-(4-hydroxybenzyl)-1,4,7,10,13,16-hexaoxoicosahydropyrrolo[1,2-a][1,4,7,10,13,16]hexaazacyclooctadecin-19-yl (2-aminoethyl)carbamate]","phosphorylation of SSTR3 (pS337/pT341, pT348)",SSTR3 [1],full phosphorylation
same,pentobarbital-induced GH release,[2],inhibited pentobarbital-induced GH release
same,internalization of SSTR3,SSTR3 [3],strong internalization
same,"Mean of internalized fluorescence, SSTR3",SSTR3-tGFP; 1 μM,61.1 AU
same,rank as SSTR3-tGFP internalization inducer,SSTR3-tGFP; 1 μM,most potent inducer of receptor internalization
same,"Mean of internalized fluorescence, SSTR3",SSTR3-tGFP; 10 μM,62.5 AU
same,spheroid morphology at the highest concentration,"NT-3 cell line spheroids; 2.56 μM, 18 days",completed destroyed
same,concentration reducing the spheroid volume,NT-3 cell line spheroids; starting from day 7,≥ 640 nM
